ChEMBL document CHEMBL1201862, “PubChem BioAssay data set” (2004)
Calls of active or inactive are those of the source.

How the values were obtained:
[1] = target: Mu-type opioid receptor (Homo sapiens, UniProt P35372); assay type: functional, cell-based;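 further: U2OS cells with beta-arrestin recruitment to OPRM1 by beta-gal complementation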
[2] = target: 5-hydroxytryptamine receptor 2A (Mus musculus, UniProt P35363); assay type: functional, cell-based;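 further: CHO-K1 cells with tagged receptor and beta-arrestin; agonist potency measured as compound-induced activation of the receptor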
[3] = test system: Vero; assay: cells; assay type: functional; conditions: Chlorocebus sabaeus
[4] = target: Paired box protein Pax-8 (Homo sapiens, UniProt Q06710); assay: inhibitors of PAX8-driven TPO luciferase reporter, dose response, RMG-I cells, cherry-pick (AID 687027); assay type: functional, cell-based;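 further: luciferase reporter driven by Pax8 target thyroperoxidase promoter measured by SteadyGlo luminescence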
[5] = Fluorescence-based cell-based high throughput dose response assay for inhibitors of the interaction of nucleotide-binding oligomerization domain containing 2 (NOD2) and the receptor-interacting serine-threonine kinase 2 (RIPK2).; assay type: functional; conditions: Homo sapiens
[6] = target: Heat shock protein HSP 90-alpha (Homo sapiens, UniProt P07900); assay type: functional, organism-based
[7] = non-specific cell cytotoxicity, dose response, cytotoxicity control for PAX8 inhibitor project, plate reader, dry powder samples (AID 743021); assay type: functional, cell-based
[8] = target: Beta Lactamase (Pseudomonas aeruginosa, UniProt Q932Y6); assay: beta-lactamase reporter inhibitor potency, dose response, artefact control for NOD2-RIPK2 interaction inhibitor project, BLA reporter cells, FRET fluorescence (AID 651552); assay type: functional, cell-based
[9] = target: T1, Small ubiquitin-related modifier 1 (Homo sapiens, UniProt P63165); assay: inhibitors of SUMO1 partner interactions, dose response, biochemical, FRET (AID 624383); assay type: functional; conditions: read-out: IC50_Mean
[10] = target: T1, Small ubiquitin-related modifier 1; assay: inhibitors of SUMO1 peptide binding, dose response, biochemical, fluorescence polarization, uHTS hits (AID 624382); assay type: functional; conditions: read-out: IC50_Mean
[11] = target: T2, Tyrosine-protein phosphatase non-receptor type 11 (Homo sapiens, UniProt Q06124); assay: SHP2 phosphatase inhibition, dose response, selectivity assay for STEP inhibitor project, biochemical (AID 602367); assay type: functional; conditions: read-out: IC50_Mean
T2 sequence (Q06124 whole entry): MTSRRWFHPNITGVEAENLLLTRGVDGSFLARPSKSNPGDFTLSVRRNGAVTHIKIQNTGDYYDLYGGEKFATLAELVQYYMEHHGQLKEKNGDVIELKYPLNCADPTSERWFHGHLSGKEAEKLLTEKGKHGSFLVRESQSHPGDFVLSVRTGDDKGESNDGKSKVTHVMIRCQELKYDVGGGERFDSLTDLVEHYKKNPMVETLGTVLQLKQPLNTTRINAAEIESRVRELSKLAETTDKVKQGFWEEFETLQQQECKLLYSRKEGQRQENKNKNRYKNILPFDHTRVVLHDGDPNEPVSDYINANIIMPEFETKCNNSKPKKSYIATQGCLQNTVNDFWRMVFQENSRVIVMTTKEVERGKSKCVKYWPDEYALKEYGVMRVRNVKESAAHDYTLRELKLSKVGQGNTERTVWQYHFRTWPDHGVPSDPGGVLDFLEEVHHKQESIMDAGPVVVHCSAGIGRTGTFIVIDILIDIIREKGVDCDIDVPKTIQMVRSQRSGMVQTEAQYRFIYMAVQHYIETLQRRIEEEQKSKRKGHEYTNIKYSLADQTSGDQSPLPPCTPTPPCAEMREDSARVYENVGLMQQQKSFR

[12] = target: T3, Tyrosine-protein phosphatase non-receptor type 5 (Homo sapiens, UniProt P54829); assay: STEP phosphatase inhibitors, confirmation, biochemical, fluorescence intensity, uHTS hits (AID 602372); assay type: functional; conditions: read-out: IC50_Mean
T3 sequence (P54829 whole entry): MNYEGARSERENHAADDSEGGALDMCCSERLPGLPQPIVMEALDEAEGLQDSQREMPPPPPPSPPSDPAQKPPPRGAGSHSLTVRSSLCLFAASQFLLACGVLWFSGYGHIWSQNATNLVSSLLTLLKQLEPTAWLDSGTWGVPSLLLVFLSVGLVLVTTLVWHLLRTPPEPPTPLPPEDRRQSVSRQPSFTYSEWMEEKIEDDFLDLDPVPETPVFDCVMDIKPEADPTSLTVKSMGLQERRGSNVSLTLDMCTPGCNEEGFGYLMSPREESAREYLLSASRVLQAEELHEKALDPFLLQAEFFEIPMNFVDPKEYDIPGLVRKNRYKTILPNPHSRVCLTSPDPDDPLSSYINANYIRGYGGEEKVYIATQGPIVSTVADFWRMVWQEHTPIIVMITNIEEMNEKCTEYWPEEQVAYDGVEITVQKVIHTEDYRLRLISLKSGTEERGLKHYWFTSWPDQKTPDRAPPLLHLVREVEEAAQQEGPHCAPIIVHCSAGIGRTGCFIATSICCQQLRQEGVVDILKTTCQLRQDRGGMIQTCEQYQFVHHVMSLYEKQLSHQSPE

[13] = target: Dual specificity protein phosphatase 3 (Homo sapiens, UniProt P51452); assay: VHR phosphatase inhibition, dose response, selectivity assay for STEP inhibitor project, biochemical (AID 602374); assay type: functional; conditions: read-out: IC50_Mean
[14] = target: T4, Tyrosine-protein phosphatase non-receptor type 22 (Homo sapiens, UniProt Q9Y2R2); assay: PTPN22 phosphatase inhibition, dose response, selectivity assay for STEP inhibitor project, biochemical (AID 624241); assay type: functional
T4 sequence (Q9Y2R2 whole entry): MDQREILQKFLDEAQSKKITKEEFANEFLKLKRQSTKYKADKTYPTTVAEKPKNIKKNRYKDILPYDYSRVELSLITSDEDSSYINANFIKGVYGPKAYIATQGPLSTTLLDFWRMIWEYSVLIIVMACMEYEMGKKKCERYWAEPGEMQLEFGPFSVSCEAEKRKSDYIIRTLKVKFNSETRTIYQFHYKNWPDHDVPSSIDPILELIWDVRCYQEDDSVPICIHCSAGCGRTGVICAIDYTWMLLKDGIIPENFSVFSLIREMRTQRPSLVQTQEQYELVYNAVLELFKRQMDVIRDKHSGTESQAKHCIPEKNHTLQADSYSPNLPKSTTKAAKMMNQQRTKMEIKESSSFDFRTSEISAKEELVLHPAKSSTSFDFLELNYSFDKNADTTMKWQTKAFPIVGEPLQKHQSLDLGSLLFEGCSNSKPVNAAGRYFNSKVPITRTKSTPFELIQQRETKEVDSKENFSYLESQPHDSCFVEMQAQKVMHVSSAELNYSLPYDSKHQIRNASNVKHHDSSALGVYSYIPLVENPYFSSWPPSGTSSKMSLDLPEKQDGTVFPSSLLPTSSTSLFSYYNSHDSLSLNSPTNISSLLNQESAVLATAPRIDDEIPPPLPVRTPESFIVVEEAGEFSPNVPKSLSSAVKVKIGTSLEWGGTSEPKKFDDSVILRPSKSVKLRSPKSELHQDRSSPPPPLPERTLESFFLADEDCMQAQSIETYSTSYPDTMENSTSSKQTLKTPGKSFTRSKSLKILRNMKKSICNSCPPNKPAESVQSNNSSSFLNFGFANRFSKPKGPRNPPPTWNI

[15] = target: Low molecular weight phosphotyrosine protein phosphatase (Homo sapiens, UniProt P24666); assay type: functional; conditions: read-out: IC50_Mean;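 further: Dose-response confirmation assay measuring inhibition of LMPTP enzyme activity by fluorescence intensity read-out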
Chain of Low molecular weight phosphotyrosine protein phosphatase (P24666 whole entry): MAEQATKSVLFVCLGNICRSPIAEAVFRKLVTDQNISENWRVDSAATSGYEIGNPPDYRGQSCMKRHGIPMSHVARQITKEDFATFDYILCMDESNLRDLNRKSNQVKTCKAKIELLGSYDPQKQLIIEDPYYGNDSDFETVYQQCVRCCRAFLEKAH

T1 sequence (P63165 whole entry): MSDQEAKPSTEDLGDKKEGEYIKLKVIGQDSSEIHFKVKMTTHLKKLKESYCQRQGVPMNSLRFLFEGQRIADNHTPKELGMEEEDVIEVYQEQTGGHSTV
Chain of Mu-type opioid receptor (P35372 whole entry): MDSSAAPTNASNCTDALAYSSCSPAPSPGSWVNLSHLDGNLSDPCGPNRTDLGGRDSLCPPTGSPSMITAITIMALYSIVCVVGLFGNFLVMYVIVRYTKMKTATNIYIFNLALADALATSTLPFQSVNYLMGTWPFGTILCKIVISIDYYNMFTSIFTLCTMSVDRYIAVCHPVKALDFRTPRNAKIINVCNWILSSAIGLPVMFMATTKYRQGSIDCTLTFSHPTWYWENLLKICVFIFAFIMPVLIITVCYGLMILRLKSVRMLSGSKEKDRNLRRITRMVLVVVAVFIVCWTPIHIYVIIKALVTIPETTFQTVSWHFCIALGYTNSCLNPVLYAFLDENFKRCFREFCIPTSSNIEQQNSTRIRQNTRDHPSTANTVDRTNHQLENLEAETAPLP
Chain of Paired box protein Pax-8 (Q06710 whole entry, the tested form may be a part): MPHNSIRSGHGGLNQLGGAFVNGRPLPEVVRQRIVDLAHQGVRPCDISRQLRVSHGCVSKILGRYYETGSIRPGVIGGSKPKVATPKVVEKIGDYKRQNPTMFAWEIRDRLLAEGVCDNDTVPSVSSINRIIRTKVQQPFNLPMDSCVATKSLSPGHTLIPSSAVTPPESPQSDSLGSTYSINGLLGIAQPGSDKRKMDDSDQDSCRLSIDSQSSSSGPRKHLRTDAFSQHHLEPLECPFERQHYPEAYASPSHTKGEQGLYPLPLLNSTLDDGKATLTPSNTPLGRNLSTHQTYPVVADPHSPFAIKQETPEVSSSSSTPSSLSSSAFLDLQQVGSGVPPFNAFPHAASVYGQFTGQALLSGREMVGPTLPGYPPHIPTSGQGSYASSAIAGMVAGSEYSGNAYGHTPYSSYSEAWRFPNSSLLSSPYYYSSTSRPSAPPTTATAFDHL
Chain of Dual specificity protein phosphatase 3 (P51452 whole entry): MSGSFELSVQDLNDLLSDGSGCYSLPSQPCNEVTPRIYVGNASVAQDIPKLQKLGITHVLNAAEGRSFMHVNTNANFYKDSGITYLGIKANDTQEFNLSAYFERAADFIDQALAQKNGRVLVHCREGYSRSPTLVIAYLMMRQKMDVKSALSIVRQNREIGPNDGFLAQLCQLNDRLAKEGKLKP
Chain of Beta Lactamase (Q932Y6 whole entry): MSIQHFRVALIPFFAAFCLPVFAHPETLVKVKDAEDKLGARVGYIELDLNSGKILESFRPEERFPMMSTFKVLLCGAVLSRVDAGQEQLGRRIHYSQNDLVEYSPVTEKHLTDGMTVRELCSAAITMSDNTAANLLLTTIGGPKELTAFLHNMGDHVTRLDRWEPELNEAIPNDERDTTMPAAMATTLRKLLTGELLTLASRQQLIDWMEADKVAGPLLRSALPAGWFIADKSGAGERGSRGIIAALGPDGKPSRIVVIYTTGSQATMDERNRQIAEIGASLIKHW
Chain of 5-hydroxytryptamine receptor 2A (P35363 whole entry): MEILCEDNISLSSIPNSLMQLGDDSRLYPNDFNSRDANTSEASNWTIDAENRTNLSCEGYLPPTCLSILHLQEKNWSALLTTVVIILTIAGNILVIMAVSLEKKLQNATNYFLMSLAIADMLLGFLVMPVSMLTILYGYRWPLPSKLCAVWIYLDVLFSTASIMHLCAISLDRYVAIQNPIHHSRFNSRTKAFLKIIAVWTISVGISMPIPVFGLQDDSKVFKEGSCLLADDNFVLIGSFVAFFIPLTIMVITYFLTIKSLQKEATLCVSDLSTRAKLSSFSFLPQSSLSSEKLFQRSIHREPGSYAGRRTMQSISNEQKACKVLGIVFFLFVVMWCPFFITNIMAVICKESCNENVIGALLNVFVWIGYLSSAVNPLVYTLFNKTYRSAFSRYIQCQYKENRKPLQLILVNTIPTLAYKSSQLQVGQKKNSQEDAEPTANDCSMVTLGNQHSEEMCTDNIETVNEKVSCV

Structure (SMILES): COc1cccc(OCC(O)CN2CCN(c3ccccn3)CC2)c1 (stereo not given)
- EC50 [1]: 92.4 µM (inactive)
- EC50 [2]: 1.46 µM (active)

Structure (SMILES): COC(=O)C1=C(C(=O)OC)C2OC1c1cc3ccccc3cc12
- CC50 [3]: > 25 µM (active)
- AC50 [4]: 5.41 µM (active)
- IC50 [5]: 1.63 µM (active)
- AC50 [6]: 1.59 µM (active)
- AC50 [7]: 23 µM (active)
- IC50 [8]: 10.1 µM (inactive)

Structure (SMILES): CC(=O)c1cccc(NC(=O)c2cccc3c(-c4cccc(C(N)=O)c4)coc23)c1
- IC50 [9]: 20.4 µM (inactive)
- IC50 [10]: > 66.6 µM (inactive)

Structure (SMILES): O=C(/C=C/c1ccc(Cl)cc1)NC(=S)Nc1ccc(C(=O)O)cc1
- IC50 [11]: 5.89 µM (active)
- IC50 [12]: 9.21 µM (active)
- IC50 [13]: 5.4 µM (active)
- IC50 [14]: 44.2 µM (inactive)
- IC50 [15]: 15.4 µM (active)
